Measurements: PMC10597491 (PLOS ONE, 2023)
Bridge positions count the residues as written; N and C are the ends. Ends that are not written are not given here.

Columns and labels:
[1] = test system: human PBMCs; test: pSTAT5 flow cytometry in human PBMC subsets; assay type: cell-based
Excerpt: Frozen PBMCs from 5 healthy human donors (A, B) and cynomolgus monkey (C) were rested (A, C) or activated with anti-CD3/CD28 (B). Cells were stained for viability, followed by cell surface antibody staining on ice. […] After washing, cells were fixed, permeabilized, stained with anti-pSTAT5 antibody, and analyzed immediately by flow cytometry. The mean fluorescence intensity (MFI) of pSTAT5 detection was shown as mean ± SEM. […] Flow cytometry gating data shown in S2 Fig.
To detect phopho-STAT5 in immune subsets of PBMCs by flow cytometry, frozen human and cynomolgus macaques PBMCs (Stemcell Technologies, Cat# 70025.2 and iQ Biosciences, Cat# IQB-MnPB102, respectively) from 5 different healthy donors were thawed and rested overnight in T-cell media (CTS™ OpTmizer™ T-Cell Expansion SFM, ThermoFisher Scientific Cat# A1048501) at 37°C. Cells were stained with a viability dye for 30 min at 37°C followed by surface marker antibodies for 30 min on ice (S3 Table), then treated with serially diluted test compounds in the medium for 30 min. […] Antibody-stained cells were analyzed immediately by flow cytometry using the Novocyte Advanteon instrument (Agilent), and the data were analyzed using FlowJo software. Fluorescence minus one (FMO) controls were used to draw gates. […]

[2] = target: T1, IL-2βγc receptor (Homo sapiens, UniProt P31785); test: IL-2-induced pSTAT5 in TF-1 cells expressing IL-2/15Rβ; assay type: cell-based
T1 construct: pcDNA3.1 expression vector encoding full-length IL-2Rβ, IL-7Rα, IL-9Rα, or IL-21Rα; TF-1 cells naturally express γc and IL-4Rα; expressed in transfected cells
T1 sequence (P31785 23-369): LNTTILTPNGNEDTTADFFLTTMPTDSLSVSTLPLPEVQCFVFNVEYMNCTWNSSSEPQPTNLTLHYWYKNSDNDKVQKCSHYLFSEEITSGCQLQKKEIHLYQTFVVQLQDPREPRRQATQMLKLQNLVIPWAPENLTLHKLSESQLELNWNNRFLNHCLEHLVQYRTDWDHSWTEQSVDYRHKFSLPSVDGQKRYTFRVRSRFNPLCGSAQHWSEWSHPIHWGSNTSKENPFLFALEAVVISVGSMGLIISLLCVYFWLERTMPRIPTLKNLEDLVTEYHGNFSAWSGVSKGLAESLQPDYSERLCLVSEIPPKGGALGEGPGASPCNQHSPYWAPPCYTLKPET
Description: Cells were deprived of growth factors by overnight incubation at 5×10^5 cells/mL in starvation medium (RPMI 1640 + 4.5 g/L glucose + 0.2% FBS + 2 mM L-glutamine + 1 mM NaPyr + 10 mM HEPES + 0.5x penicillin-streptomycin with no cytokine supplement) in T75 flasks. For assays, cells were plated in 96-well V-bottom plates at 2×10^5 cells/well. Three-fold serial dilutions in starvation medium of the test compounds or cytokine were added to the cells and incubated for 30 min at 37°C. Following incubation, cell extracts were prepared by adding a mixture of 10x Cell Lysis Buffer (Cell Signaling Technology Cat# 9803) and 100x HALT Phosphatase and Protease Inhibitor Cocktail (Thermo Fisher Cat# 78442) directly to the wells. The plates were agitated at 25°C for 5 min to prepare cell extracts for immediate use or to be stored at -80°C until assay. Detection of pSTAT5 was performed using a PathScan® Phospho-Stat5 (pTyr694) Sandwich ELISA Kit (Cell Signaling Technology Cat# 7113). Detection of pSTAT6 was performed using a PathScan® Phospho-Stat6 (pTyr641) Sandwich ELISA Kit (Cell Signaling Technology Cat# 7275). Detection of pSTAT3 was performed using a PathScan® Phospho-Stat3 (pTyr705) Sandwich ELISA Kit (Cell Signaling Technology Cat# 7300). Cell lysates were added to pre-coated ELISA wells and incubated at 4°C overnight. […]

[3] = Plasma stability in vitro, human plasma; assay type: in vitro ADME; parameters: dose or concentration left out as unconfirmed; conditions: 37°C, incubated in duplicate, intact peptide by LC/MS/MS, read-out: t1/2 in human plasma (converted)
Excerpt: Affinity maturation of these initial families produced ligands with improved affinities; and combinations of these ligands (one each for IL-7Rα and γc) were joined into heterodimers in a variety of orientations (i.e., joined by N-termini, C-termini, or N-to-C termini), with several connection chemistries, for testing as IL-7R agonists in cell-based assays. The lead peptide agonist for detailed characterization, as described here, is a fusion of peptides MDK1248 and MDK1188, joined with a short intervening linker to form the single-chain peptide MDK1472. The peptides were analyzed for sequence similarity to IL-7, and none was found.
Supplementary file pone.0286834.s001.pptx: S1 Fig Plasma stability of MDK 1472 in vitro. […] MDK1472 or control peptide YGGFL incubated in duplicate in human or cynomolgus plasma at 37°C. At indicated time points, compounds were isolated from the plasma and the quantity of intact peptides measured by LC/MS/MS (Study performed by Quintara Discovery, Hayward, CA). (PPTX) Click here for additional data file.

| Substance | pSTAT5 response of NK cells [1] | IC50 [2] [µM] | half-life [3] [h] |
| --- | --- | --- | --- |
| IL-7: human IL-7 cytokine (Peprotech) | no pSTAT5 response |  |  |
| Ac-GWGIPWCTLDPGSLQCAWLGKHGGGGSGGVVCQDWEGVELCWQGG (disulfide 7-16, 32-41) [MDK1472] |  | ~5 | 60 |
